In PubChem BioAssay AID330 (DTP/NCI, 2004):
Several values for one entry are separate records, joined by “and”; a condition that tells them apart may be missing. Identical values can stand only once. Inconclusive results and toxic doses are left out.

Tested on: P388 leukemia ip, CD2F1 mice, survival T/C
Assay: NCI In Vivo Anticancer Drug Screen. Data for tumor model P388 Leukemia (intraperitoneal) in CD2F1 (CDF1) mice
Conditions: endpoint: median survival time, higher = longer survival
Outline: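 Mice carrying the transplanted tumor received test compound or vehicle. Survival was recorded in each group, and the value is the treated-group measurement divided by that of the vehicle-treated control group.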

[1] = dose: 25.0 mg/kg/injection, schedule: Q01DX005 (ip), vehicle: Klucel (hydroxypropylcellulose) (HPC)
[2] = dose: 50.0 mg/kg/injection, schedule: Q01DX005 (ip), vehicle: Klucel (hydroxypropylcellulose) (HPC)
[3] = dose: 100.0 mg/kg/injection, schedule: Q01DX005 (ip), vehicle: Klucel (hydroxypropylcellulose) (HPC)
[4] = dose: 200.0 mg/kg/injection, schedule: Q01DX005 (ip), vehicle: Klucel (hydroxypropylcellulose) (HPC)
[5] = dose: 6.25 mg/kg/injection, schedule: Q01DX009 (ip), vehicle: saline
[6] = dose: 12.5 mg/kg/injection, schedule: Q01DX009 (ip), vehicle: saline
[7] = dose: 25.0 mg/kg/injection, schedule: Q01DX009 (ip), vehicle: saline
[8] = dose: 12.5 mg/kg/injection, schedule: Q01DX009 (ip), vehicle: Klucel (hydroxypropylcellulose) (HPC)
[9] = dose: 25.0 mg/kg/injection, schedule: Q01DX009 (ip), vehicle: Klucel (hydroxypropylcellulose) (HPC)
[10] = dose: 25.0 mg/kg/injection, schedule: Q01DX009 (ip), vehicle: other
[11] = dose: 50.0 mg/kg/injection, schedule: Q01DX009 (ip), vehicle: Klucel (hydroxypropylcellulose) (HPC)
[12] = dose: 50.0 mg/kg/injection, schedule: Q01DX009 (ip), vehicle: saline with Tween-80
[13] = dose: 100.0 mg/kg/injection, schedule: Q01DX009 (ip), vehicle: saline with Tween-80
[14] = dose: 200.0 mg/kg/injection, schedule: Q01DX009 (ip), vehicle: saline with Tween-80
[15] = dose: 50.0 mg/kg/injection, schedule: Q01DX005 (ip), vehicle: saline with Tween-80
[16] = dose: 100.0 mg/kg/injection, schedule: Q01DX005 (ip), vehicle: saline with Tween-80
[17] = dose: 200.0 mg/kg/injection, schedule: Q01DX005 (ip), vehicle: saline with Tween-80
[18] = dose: 100.0 mg/kg/injection, schedule: Q04DX002 (ip), vehicle: Klucel (hydroxypropylcellulose) (HPC)
[19] = dose: 200.0 mg/kg/injection, schedule: Q04DX002 (ip), vehicle: Klucel (hydroxypropylcellulose) (HPC)
[20] = dose: 60.0 mg/kg/injection, schedule: Q01DX005 (ip), vehicle: saline with Tween-80
[21] = dose: 120.0 mg/kg/injection, schedule: Q01DX005 (ip), vehicle: saline with Tween-80

`CCOC(=O)C(Cc1cc2c(n1C)CCCC2)(NC(C)=O)C(=O)OCC` was tested, and the T/C [1] was 98 % of control, the T/C [2] was 96 % of control and the T/C [3] was 98 % of control. For the same compound, the T/C [4] was 100 % of control.
In the case of `CCOC(=O)NSCC`, the T/C [5] is reported as 100 % of control, the T/C [6] is reported as 103 % of control and the T/C [7] is reported as 105 % of control.
With `FC(F)(F)c1ccc2c(c1)N(CCCCl)c1ccccc1S2` the T/C (dose: 50.0 mg/kg/injection, schedule: Q04DX003 (ip), vehicle: saline) was 94 % of control, the T/C (dose: 100.0 mg/kg/injection, schedule: Q04DX003 (ip), vehicle: saline) was 99 % of control and the T/C (dose: 200.0 mg/kg/injection, schedule: Q04DX003 (ip), vehicle: saline) was 104 % of control. The T/C (dose: 400.0 mg/kg/injection, schedule: Q04DX003 (ip), vehicle: saline) was 98 % of control.
With `Cc1cnc(/C=N\NC(N)=S)c2cccc(N)c12` the T/C (dose: 1.57 mg/kg/injection, schedule: Q01DX009 (ip), vehicle: saline with Tween-80) was 120 % of control, the T/C (dose: 3.12 mg/kg/injection, schedule: Q01DX009 (ip), vehicle: saline with Tween-80) was 103 % of control and the T/C (dose: 4.32 mg/kg/injection, schedule: Q01DX005 (ip), vehicle: clinical formulation) was 121 % of control. For the same compound, the T/C (dose: 6.25 mg/kg/injection, schedule: Q01DX009 (ip), vehicle: water) was 170 % of control, the T/C (dose: 12.0 mg/kg/injection, schedule: Q01DX005 (ip), vehicle: clinical formulation) was 152 % of control and the T/C [8] was 162 % of control and 163 % of control. For the same compound, the T/C (dose: 12.5 mg/kg/injection, schedule: Q01DX009 (ip), vehicle: other) was 188 % of control, the T/C (dose: 12.5 mg/kg/injection, schedule: Q01DX009 (ip), vehicle: saline with Tween-80) was 168 % of control and the T/C [6] was 150 % of control. For the same compound, the T/C (dose: 12.5 mg/kg/injection, schedule: Q01DX009 (ip), vehicle: water) was 189 % of control, the T/C (dose: 20.0 mg/kg/injection, schedule: Q01DX005 (ip), vehicle: clinical formulation) was 155 % of control and the T/C [9] was 179 % of control and 193 % of control. For the same compound, the T/C [10] was 97 % of control, the T/C (dose: 25.0 mg/kg/injection, schedule: Q01DX009 (ip), vehicle: saline with Tween-80) was 184 % of control and the T/C [7] was 172 % of control. The T/C (dose: 25.0 mg/kg/injection, schedule: Q01DX009 (ip), vehicle: water) was 218 % of control and the T/C [11] was 109 % of control.
With `COc1ccc(/C=C/CC2Cc3cc4c(cc3OC2c2ccc(OC)cc2)OCO4)cc1` (stereo not drawn) the T/C (dose: 3.75 mg/kg/injection, schedule: Q01DX005 (ip), vehicle: saline with Tween-80) was 93 % of control and the T/C (dose: 7.5 mg/kg/injection, schedule: Q01DX005 (ip), vehicle: saline with Tween-80) was 90 % of control.
With `O=c1[nH]c2cc(Cl)ccc2nc1/C=C(\O)c1ccccc1` the T/C (dose: 60.0 mg/kg/injection, schedule: Q01DX005 (ip), vehicle: Klucel (hydroxypropylcellulose) (HPC)) was 96 % of control, the T/C (dose: 120.0 mg/kg/injection, schedule: Q01DX005 (ip), vehicle: Klucel (hydroxypropylcellulose) (HPC)) was 91 % of control and the T/C (dose: 240.0 mg/kg/injection, schedule: Q01DX005 (ip), vehicle: Klucel (hydroxypropylcellulose) (HPC)) was 92 % of control.
`COc1ccc(C2OC(=O)c3ncccc32)cc1` (stereo not drawn) was tested, and the T/C [12] was 102 % of control, the T/C [13] was 104 % of control and the T/C [14] was 104 % of control.
With `Cc1ccc(C(=O)c2cc3c([nH]c4ccccc43)c(C)c2C(=O)O)cc1` the T/C [2] was 103 % of control, the T/C [3] was 92 % of control and the T/C [4] was 100 % of control.
For `O=C1C(C(=NCCCN2CCOCC2)c2ccccc2)=C(O)c2ccccc21`, the T/C (dose: 25.0 mg/kg/injection, schedule: Q04DX002 (ip), vehicle: saline with Tween-80) was 102 % of control, the T/C (dose: 50.0 mg/kg/injection, schedule: Q04DX002 (ip), vehicle: saline with Tween-80) was 101 % of control and the T/C (dose: 100.0 mg/kg/injection, schedule: Q04DX002 (ip), vehicle: saline with Tween-80) was 109 % of control.
In the case of `CNC(=O)C(C(=O)NC)c1ccccc1`, the T/C (dose: 100.0 mg/kg/injection, schedule: Q04DX003 (ip), vehicle: Klucel (hydroxypropylcellulose) (HPC)) is reported as 95 % of control, the T/C (dose: 200.0 mg/kg/injection, schedule: Q04DX003 (ip), vehicle: Klucel (hydroxypropylcellulose) (HPC)) is reported as 95 % of control and the T/C (dose: 400.0 mg/kg/injection, schedule: Q04DX003 (ip), vehicle: Klucel (hydroxypropylcellulose) (HPC)) is reported as 96 % of control.
With `CC[N+]1(CC)CCCCC1` the T/C (dose: 3.12 mg/kg/injection, schedule: Q01DX009 (ip), vehicle: saline) was 109 % of control, the T/C [5] was 109 % of control and the T/C [6] was 105 % of control.
In the case of `CCCCCNC(=O)C(O)C(O)C(=O)NCCCCC` (stereo not drawn), the T/C [15] is reported as 104 % of control, the T/C [16] is reported as 101 % of control and the T/C [17] is reported as 90 % of control.
With `O=C1/C(=C/c2ccccc2)CCCC12C(c1ccccc1)N2C1CCCCC1` (stereo not drawn) the T/C [18] was 93 % of control, the T/C [19] was 86 % of control and the T/C (dose: 400.0 mg/kg/injection, schedule: Q04DX002 (ip), vehicle: Klucel (hydroxypropylcellulose) (HPC)) was 92 % of control.
In the case of `CC1CCC(C(C)C)C(NN)C1` (stereo not drawn), the T/C [15] is reported as 104 % of control, the T/C [16] is reported as 100 % of control and the T/C [17] is reported as 108 % of control.
For `CCCCN(CCCC)CCC(O)c1cc(-c2ccc(C(F)(F)F)cc2)nc(-c2ccc(C(F)(F)F)cc2)c1` (stereo not drawn), the T/C [12] was 111 % of control, the T/C [13] was 106 % of control and the T/C [14] was 101 % of control.
For `COc1cc2c(cc1C(C)c1ccc(OC(C)=O)cc1)OCO2` (stereo not drawn), the T/C [1] was 103 % of control, the T/C [2] was 103 % of control and the T/C [3] was 99 % of control. The T/C [4] was 101 % of control.
In the case of `CN(C)CCOC(=O)Nc1ccccc1C(F)(F)F`, the T/C [20] is reported as 99 % of control and the T/C [21] is reported as 95 % of control.
In the case of `C=CCNC(=O)/C(C)=C(\C)c1ccccc1`, the T/C (dose: 50.0 mg/kg/injection, schedule: Q04DX002 (ip), vehicle: Klucel (hydroxypropylcellulose) (HPC)) is reported as 102 % of control, the T/C [18] is reported as 102 % of control and the T/C [19] is reported as 103 % of control.
With `Oc1nc(-c2ccccc2)sc1-c1ccccc1` the T/C [12] was 89 % of control, the T/C [13] was 92 % of control and the T/C [14] was 104 % of control.
With `CNC(=S)NNc1ccc(Cl)c(Cl)c1` the T/C [10] was 112 % of control and the T/C (dose: 50.0 mg/kg/injection, schedule: Q01DX009 (ip), vehicle: other) was 108 % of control.
For `CSc1nc(N)n2nc(C)cc2n1`, the T/C [20] was 100 % of control, the T/C [21] was 100 % of control and the T/C (dose: 240.0 mg/kg/injection, schedule: Q01DX005 (ip), vehicle: saline with Tween-80) was 95 % of control.
With `CSc1nnc2nc[nH]n12` the T/C (dose: 100.0 mg/kg/injection, schedule: Q01DX001 (ip), vehicle: saline with Tween-80) was 102 % of control and the T/C (dose: 200.0 mg/kg/injection, schedule: Q01DX001 (ip), vehicle: saline with Tween-80) was 98 % of control.
With `CCOC(=O)C(CCc1ccc(N(CCCl)CCCl)cc1)(NC(C)=O)C(=O)OCC` the T/C [8] was 109 % of control, the T/C [9] was 111 % of control and the T/C [11] was 116 % of control.
For `COc1cc2c(cc1OC)C(C)(C)N(Cc1ccccc1)C(C)C2(C)C` (stereo not drawn), the T/C (dose: 3.12 mg/kg/injection, schedule: Q01DX009 (ip), vehicle: Klucel (hydroxypropylcellulose) (HPC)) was 105 % of control, the T/C (dose: 6.25 mg/kg/injection, schedule: Q01DX009 (ip), vehicle: Klucel (hydroxypropylcellulose) (HPC)) was 105 % of control and the T/C [8] was 114 % of control. For the same compound, the T/C [9] was 107 % of control and the T/C [11] was 112 % of control.
For `C=C1C(C2(C)C=CC(=O)OC3(C)COC(=O)CC32)C(OC=O)C(OC(=O)C(O)C(C)CC)C2(C)C(c3ccoc3)CC(OC(C)=O)C12O` (stereo not drawn), the T/C (dose: 5.0 mg/kg/injection, schedule: Q01DX005 (ip), vehicle: Klucel (hydroxypropylcellulose) (HPC)) was 96 % of control, the T/C (dose: 10.0 mg/kg/injection, schedule: Q01DX005 (ip), vehicle: Klucel (hydroxypropylcellulose) (HPC)) was 98 % of control and 96 % of control and the T/C (dose: 20.0 mg/kg/injection, schedule: Q01DX005 (ip), vehicle: Klucel (hydroxypropylcellulose) (HPC)) was 91 % of control and 95 % of control. For the same compound, the T/C (dose: 40.0 mg/kg/injection, schedule: Q01DX005 (ip), vehicle: Klucel (hydroxypropylcellulose) (HPC)) was 95 % of control and 96 % of control, the T/C (dose: 80.0 mg/kg/injection, schedule: Q01DX005 (ip), vehicle: Klucel (hydroxypropylcellulose) (HPC)) was 102 % of control and the T/C (dose: 160.0 mg/kg/injection, schedule: Q01DX005 (ip), vehicle: Klucel (hydroxypropylcellulose) (HPC)) was 87 % of control.
